Laboratory results reported in PMC6515931, “The Efflux Mechanism of Fraxetin-O-Glucuronides in UGT1A9-Transfected HeLa Cells: Identification of Multidrug Resistance-Associated Proteins 3 and 4 (MRP3/4) as the Important Contributors” (Frontiers in Pharmacology, 2019).
Where “and” joins values, the source holds several entries; their conditions need not be identical. Identical values can stand only once. Like-named read-outs stand apart in the source and are kept apart here.

Columns and labels:
UGT1A9 [1] = target: T1, UGT1A9 (Homo sapiens, UniProt O60656); test: Effect of Ko143 and MK571 on fraxetin-O-glucuronidation activity of UGT1A9; conditions: Ko143 20 μM
T1 sequence (O60656 26-530): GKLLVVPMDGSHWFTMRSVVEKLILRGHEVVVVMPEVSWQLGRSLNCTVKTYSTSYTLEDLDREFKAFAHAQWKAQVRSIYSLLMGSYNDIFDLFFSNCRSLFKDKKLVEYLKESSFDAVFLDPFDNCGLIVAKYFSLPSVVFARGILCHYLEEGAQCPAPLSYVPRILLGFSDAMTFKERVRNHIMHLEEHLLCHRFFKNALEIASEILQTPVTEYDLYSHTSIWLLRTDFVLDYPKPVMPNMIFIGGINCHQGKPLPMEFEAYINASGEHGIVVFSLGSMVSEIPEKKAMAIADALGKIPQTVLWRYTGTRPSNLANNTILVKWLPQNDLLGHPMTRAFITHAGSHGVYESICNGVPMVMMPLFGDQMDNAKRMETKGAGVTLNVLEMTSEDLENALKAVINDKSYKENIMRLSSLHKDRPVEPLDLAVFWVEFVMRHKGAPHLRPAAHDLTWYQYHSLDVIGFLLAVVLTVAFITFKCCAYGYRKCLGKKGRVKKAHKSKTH
Protocol: (§1) The incubation system was slightly modified on the basis of a previously published article ([Qin et al., 2018a]). […] After preincubation at 37°C for 5 min, UDPGA (3.5 mM) was added to the reaction system, and the mixture was incubated for another 30 min. These reactions were terminated by the addition of an equal volume of ice-cold acetonitrile. The mixed samples were centrifuged at 13800 × g for 10 min, and the supernatant was analyzed by ultra-high-performance liquid chromatography (UHPLC). All the experiments were conducted in triplicate.
(§2) Other detailed operations were the same as described above.

HeLa1A9 cell lysate [2] = target: T2, HeLa1A9 cell lysate (Homo sapiens, UniProt O60656); test: Effect of Ko143 and MK571 on fraxetin-O-glucuronidation activity of HeLa1A9 cell lysate; assay type: biochemical; conditions: Ko143 20 μM
T2 sequence (O60656 26-530): T1 sequence (O60656 26-530)
Protocol: as §1, §2

HeLa1A9 cell lysate [3] = target: T2, HeLa1A9 cell lysate; test: Glucuronidation kinetics by HeLa1A9 cell lysate; assay type: in vitro ADME; conditions: metabolite propofol-G
Protocol: as §1
The enzyme kinetic parameters were obtained by fitting appropriate kinetic models to the experimental data in GraphPad Prism V5 software (San Diego, CA, United States). The best model was selected based on visual inspection of the Eadie–Hofstee plots ([Qin et al., 2018b]). In brief, if the Eadie–Hofstee plot was linear, formation rates (V) of glucuronides at different substrate concentrations (C) were fitted to the standard equations (1): […]
Where Km is the Michaelis–Menten constant, and Vmax is the maximum rate of glucuronidation. The intrinsic clearance (CLint) was computed as Vmax/Km.

UGT1A9 [4] = target: T1, UGT1A9; test: Inhibition of fraxetin-O-glucuronide formation by selective UGT1A9 inhibitors; assay type: biochemical; set-up: purchased Corning Biosciences; conditions: fraxetin 4 and 20 μM; magnolol 1 μM, niflumic acid 10 μM, androsterone 10 μM
Protocol: as §1, §2

BCRP [5] = target: T3, BCRP (Homo sapiens, UniProt Q9UNQ0); test: shRNA-mediated partial silencing of BCRP in HeLa1A9 cells, glucuronide excretion; assay type: cell-based; conditions: fraxetin 10 μM
T3 construct: BCRP, MRP1, MRP3, and MRP4 were detected in both wild-type HeLa and HeLa1A9 cells; endogenous in cells; host or cells: HeLa1A9 cells
T3 sequence (Q9UNQ0 1-655): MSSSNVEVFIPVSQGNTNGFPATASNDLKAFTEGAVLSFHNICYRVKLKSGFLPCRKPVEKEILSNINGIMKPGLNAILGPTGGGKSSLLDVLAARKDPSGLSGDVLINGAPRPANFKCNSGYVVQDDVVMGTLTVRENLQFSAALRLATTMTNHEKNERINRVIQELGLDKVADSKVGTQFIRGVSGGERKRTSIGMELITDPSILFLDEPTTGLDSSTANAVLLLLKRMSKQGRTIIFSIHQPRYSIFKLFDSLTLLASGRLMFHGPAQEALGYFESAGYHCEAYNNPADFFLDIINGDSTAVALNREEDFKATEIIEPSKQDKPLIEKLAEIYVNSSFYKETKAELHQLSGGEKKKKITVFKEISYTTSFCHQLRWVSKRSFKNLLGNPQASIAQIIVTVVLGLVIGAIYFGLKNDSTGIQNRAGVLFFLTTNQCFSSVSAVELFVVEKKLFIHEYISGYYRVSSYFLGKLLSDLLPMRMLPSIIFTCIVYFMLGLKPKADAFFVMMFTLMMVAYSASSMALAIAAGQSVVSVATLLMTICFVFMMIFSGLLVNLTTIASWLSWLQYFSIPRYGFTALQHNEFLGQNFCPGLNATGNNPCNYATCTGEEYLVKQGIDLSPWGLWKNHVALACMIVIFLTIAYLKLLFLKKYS
Protocol: (§3) The HeLa1A9 cells were pretreated and incubated with fraxetin solutions as reported previously ([Jiang et al., 2011]). Before assays, the HeLa1A9 cells were washed twice with prewarmed (37°C) Hank’s balanced salt solution (HBSS; pH = 7.4). After that, fraxetin (10 μM) dissolved in 2 mL of HBSS was incubated with the HeLa1A9 cells. At each time point (30, 60, 90, and 120 min), 200 μL of the culture supernatant from each well was collected as samples, and an equal volume of a loading media was used to replenish each well. Next, the collected samples were each mixed with 100 μL ice-cold acetonitrile. The supernatants were subjected to UHPLC analysis after centrifugation (10 min at 13800 × g).
(§4) In glucuronide excretion assays, biological inhibition mainly including shRNA-mediated partial silencing of BCRP and MRPs in HeLa cells was usually performed to evaluate the role of each efflux transporter ([Quan et al., 2015]; [Sun et al., 2015]; [Qin et al., 2018a]). Established shRNA_BCRP, shRNA_MRP1, shRNA_MRP3, and shRNA_MRP4 plasmids were transiently transfected into HeLa1A9 cells to develop the stably shRNA-transfected cell lines, named HeLa1A9-BCRP-shRNA cells, HeLa1A9-MRP1-shRNA, HeLa1A9-MRP3-shRNA, and HeLa1A9-MRP4-shRNA cells, respectively. […]
(§5) In addition, the excretion rate of intracellular glucuronides was calculated using Equ. […]

α-glucosidase = target: α-glucosidase; set-up: method as in Milella et al., 2016; conditions: versus acarbose, a well-known α-glucosidase inhibitor; ref Milella et al., 2016; cited from earlier work
[6] = set-up: method as in Wang H. et al., 2016; conditions: rats; after oral administration of fraxin 50 mg/kg; ref Wang H. et al., 2016; cited from earlier work
MRP2 = tested on: MRP2; set-up: method as in Sjöstedt et al., 2016; conditions: ref Sjöstedt et al., 2016; cited from earlier work
[7] = tested on: UDP-glucuronosyltransferase 1A9 (UGT1A9); set-up: method as in Xia et al., 2014; conditions: ref Xia et al., 2014, cited from earlier work
BCRP [8] = tested on: BCRP; set-up: method as in Sjöstedt et al., 2016; conditions: ref Sjöstedt et al., 2016; cited from earlier work
cystathionine β-synthase = tested on: cystathionine β-synthase; set-up: method as in Thorson et al., 2013; conditions: cystathionine β-synthase inhibitor; ref Thorson et al., 2013; cited from earlier work
MRP1 = target: T4, MRP1 (Homo sapiens, UniProt P33527); test: shRNA-mediated partial silencing of MRP1 in HeLa1A9 cells, glucuronide excretion; assay type: cell-based; conditions: fraxetin 10 μM
T4 construct: BCRP, MRP1, MRP3, and MRP4 were detected in both wild-type HeLa and HeLa1A9 cells; endogenous in cells
Protocol: as §3, §4, §5

HeLa1A9 cells = test: Toxicity toward HeLa1A9 cells during excretion experiments; assay type: cell-based, human; conditions: within the experimental concentration range

T4 sequence (P33527 whole entry): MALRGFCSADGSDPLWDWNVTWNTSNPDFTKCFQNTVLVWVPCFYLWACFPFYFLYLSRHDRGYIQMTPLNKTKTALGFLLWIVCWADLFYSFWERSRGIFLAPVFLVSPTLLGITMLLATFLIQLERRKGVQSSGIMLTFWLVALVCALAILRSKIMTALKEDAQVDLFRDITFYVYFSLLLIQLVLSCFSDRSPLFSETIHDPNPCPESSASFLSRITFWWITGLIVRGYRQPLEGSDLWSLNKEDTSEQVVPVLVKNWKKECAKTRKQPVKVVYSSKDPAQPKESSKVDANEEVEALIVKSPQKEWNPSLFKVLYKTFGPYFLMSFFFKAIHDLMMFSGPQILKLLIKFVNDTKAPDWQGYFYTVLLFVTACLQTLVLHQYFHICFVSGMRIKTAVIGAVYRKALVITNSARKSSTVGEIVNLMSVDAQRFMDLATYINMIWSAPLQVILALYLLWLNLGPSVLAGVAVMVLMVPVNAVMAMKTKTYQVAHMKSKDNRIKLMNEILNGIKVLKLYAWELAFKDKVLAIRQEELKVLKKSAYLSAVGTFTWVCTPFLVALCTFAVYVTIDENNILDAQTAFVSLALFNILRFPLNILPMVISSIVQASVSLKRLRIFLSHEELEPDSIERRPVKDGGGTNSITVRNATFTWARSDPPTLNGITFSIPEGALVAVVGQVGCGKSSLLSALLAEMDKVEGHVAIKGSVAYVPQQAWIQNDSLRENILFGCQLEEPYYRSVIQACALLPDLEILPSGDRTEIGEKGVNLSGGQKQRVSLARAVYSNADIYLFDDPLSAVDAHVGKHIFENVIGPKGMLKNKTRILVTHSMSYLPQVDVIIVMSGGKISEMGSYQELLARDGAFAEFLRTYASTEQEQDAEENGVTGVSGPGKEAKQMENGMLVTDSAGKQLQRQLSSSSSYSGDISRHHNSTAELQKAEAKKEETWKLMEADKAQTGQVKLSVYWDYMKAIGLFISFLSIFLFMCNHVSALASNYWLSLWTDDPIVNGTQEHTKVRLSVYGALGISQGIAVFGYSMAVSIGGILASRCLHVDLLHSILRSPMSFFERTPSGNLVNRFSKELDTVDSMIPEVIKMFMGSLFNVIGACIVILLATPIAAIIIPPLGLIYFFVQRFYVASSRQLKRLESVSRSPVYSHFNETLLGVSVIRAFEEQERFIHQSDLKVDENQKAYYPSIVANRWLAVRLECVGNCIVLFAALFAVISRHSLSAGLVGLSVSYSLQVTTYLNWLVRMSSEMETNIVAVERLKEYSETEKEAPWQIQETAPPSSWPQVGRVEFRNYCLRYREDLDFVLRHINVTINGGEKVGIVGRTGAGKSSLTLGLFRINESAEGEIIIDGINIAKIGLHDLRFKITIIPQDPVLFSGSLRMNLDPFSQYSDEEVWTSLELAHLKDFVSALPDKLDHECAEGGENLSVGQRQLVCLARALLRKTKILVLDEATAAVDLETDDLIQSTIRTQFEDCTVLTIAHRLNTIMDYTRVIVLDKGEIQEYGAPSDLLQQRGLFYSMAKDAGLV

## COc1ccc2c3c([nH]c2c1)[C@H](CC(C)C)N1C(=O)[C@H](CCC(=O)OC(C)(C)C)NC(=O)[C@@H]1C3 [Ko143]
UGT1A9 [1]
  inhibition of fraxetin-O-glucuronidation, G1: 41.5%
  inhibition of fraxetin-O-glucuronidation, G2: 24.9%
HeLa1A9 cell lysate [2]
  inhibition of fraxetin-O-glucuronidation, G1: 20.4%
  inhibition of fraxetin-O-glucuronidation, G2: 29.3%

## CC(C)c1cccc(C(C)C)c1O [propofol]
HeLa1A9 cell lysate [3]
  Vmax: 3.2 ± 0.2 (^aaa) pmol/min/mg

## O=C(O)c1cccnc1Nc1cccc(C(F)(F)F)c1 [niflumic acid]
UGT1A9 [4]
  effect on formation of G1 and G2: significantly inhibited

## COc1cc2ccc(=O)oc2c(O)c1O [fraxetin]
BCRP [5]
  changes in excretion rates, intracellular glucuronides and fmet values: did not cause any changes
α-glucosidase
  half-maximal inhibitory concentration (IC50) compared with acarbose: significantly lower
[6]
  half-life: 11 h
  maximal plasma concentration: 2250 ng/mL and ~11 μM
MRP2
  inhibitory action on transporter: absence of an inhibitory action
[7]; formation of fraxetin-7-O-glucuronide by UGT1A9
  CLint: 42 μL/min per milligram of protein
[7]; formation of fraxetin-8-O-glucuronide by UGT1A9
  CLint: 300 μL/min per milligram of protein
BCRP [8]
  inhibitory action on transporter: absence of an inhibitory action
Cystathionine β-synthase
  IC50: 134 µM
MRP1
  changes in excretion rates, intracellular glucuronides and fmet values: did not cause any changes
HeLa1A9 cells
  toxicity toward HeLa1A9 cells: no significant toxicity
